Source: PMC11062899, “De novo development of small cyclic peptides that are orally bioavailable” (Nature Chemical Biology, 2023)
Where “and” joins values, the source holds several entries; their conditions need not be identical. Identical values can stand only once.

Key:
rat α-thrombin = biological target: T1, rat α-thrombin (Rattus norvegicus, UniProt P18292); test: Protease inhibition, Ki for rat α-thrombin (fluorogenic substrate Z-Gly-Gly-Arg-AMC); type: biochemical; details: replicates R1-R3
T1 construct: rat α-thrombin (Molecular Innovations) were used at final concentrations of 2 nM and 3 nM; purchased Molecular Innovations
In short: (§1)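 Ki values come from Cheng–Prusoff correction of IC50, itself fitted by four-parameter logistic regression of activity versus a no-peptide control. Assays used 2 nM human or 3 nM rat thrombin, 50 μM Z-Gly-Gly-Arg-AMC, 30 min kinetic fluorescence at 25 °C.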

[1] = Metabolic stability in rat liver microsomes (RLMs); details: rat, microsomes
human α-thrombin = human α-thrombin (Homo sapiens, UniProt P00734); test: Protease inhibition, Ki for human α-thrombin (fluorogenic substrate Z-Gly-Gly-Arg-AMC); type: biochemical; details: replicates R1-R3
In short: as §1

[2] = Peptide stability in simulated intestinal fluid (SIF); type: in vitro ADME, porcine; details: simulated gi fluid; 8 h, 37 °C, pH 6.8; read-out: Proteolytic stability: SIF (8 h) % remaining
Procedure: (§2) Simulated gastric and intestinal fluids were prepared according to the States Pharmacopeia specifications (Test Solutions, United States Pharmacopeia 35, NF 30, 2012). SGF: 0.2 g of sodium chloride was dissolved in 50 ml of water, and the pH was adjusted to 1.2 by addition of 0.7 ml of 10 M hydrochloric acid. Then, 0.32 g of porcine pepsin (Sigma-Aldrich, P7125) was dissolved under gentle agitation, and the volume was filled up to 100 ml with Milli-Q water. SIF: 0.68 g of monobasic potassium phosphate was dissolved in 25 ml of Milli-Q water, and the pH was adjusted to 6.8 by adding 7.7 ml of a 0.2 M sodium hydroxide solution. Next, 1 g of porcine pancreatin (Sigma-Aldrich, P3292) was added under gentle agitation, and the volume was adjusted to 100 ml with Milli-Q water to afford a fine suspension. To test the stability in simulated gastrointestinal fluids, 396 μl of SGF or SIF was pre-heated at 37 °C for 10 min, and 4 μl of a 1 mM peptide solution in DMSO was added. […] Supernatant was analyzed by LC–MS to measure the peptide concentrations at the different timepoints. Residual peptide was calculated by normalizing the concentrations measured at T1 to T0.

porcine pancreatin = test: as above; type: in vitro ADME; details: after 8 h vs 0 h (TIC); average of R1-R3
Procedure: as §2

porcine pepsin = biological target: T2, porcine pepsin (Sus scrofa, UniProt P00791); test: Peptide stability in simulated gastric fluid (SGF); type: in vitro ADME; details: for SGF stability, Residual peptide Average / SGF stability, Residual peptide: after 8 h vs 0 h (TIC); for SGF stability, Residual peptide Average: average of R1-R3; for SGF stability, Residual peptide: single replicates R1-R3; for remaining at 8 h: simulated gi fluid, 37 °C, pH 1.2, read-out: Proteolytic stability: SGF (8 h) % remaining
T2 construct: 0.32 g of porcine pepsin (Sigma-Aldrich, P7125) was dissolved under gentle agitation; purchased Sigma-Aldrich P7125
Procedure: as §2

[3] = Passive artificial membrane permeability (PAMPA); details: for PAMPA permeability: % permeability: 50 μM, 12–18 h, acceptor concentration relative to equilibrium; for Papp at 50 μM / Permeability% Average / Permeability% R1 / Permeability% R3: PAMPA; for Papp at 50 μM: pH 7.4; for Permeability% Average: average of R1-R3; for Permeability% R1: replicate R1; for Permeability% R1 / Permeability% R3: TIC of top well sample relative to sample at theoretical equilibrium; for Permeability% R3: replicate R3
[4] = peptide 1.33E+02 uM, slope of proteolytic substrate cleavage over time
[5] = CL (ul/min/mg protein) R1, RLM CL, replicate R1
[6] = CL (ul/min/mg protein) R2, RLM CL, replicate R2
[7] = CL (ul/min/mg protein) R3, RLM CL, replicate R3
[8] = Half Life (min) R1, RLM metabolic stability, replicate R1, 0-60 min
[9] = Half Life (min) R2, RLM metabolic stability, replicate R2, 0-60 min
[10] = Half Life (min) R3, RLM metabolic stability, replicate R3, 0-60 min
[11] = Metabolic stability: Half life T1/2 (min), RLMs, mean and SD, three measurements
[12] = Metabolic stability: RLM CL (ul/min/mg), RLMs, mean and SD, three measurements

T2 sequence (P00791 60-385): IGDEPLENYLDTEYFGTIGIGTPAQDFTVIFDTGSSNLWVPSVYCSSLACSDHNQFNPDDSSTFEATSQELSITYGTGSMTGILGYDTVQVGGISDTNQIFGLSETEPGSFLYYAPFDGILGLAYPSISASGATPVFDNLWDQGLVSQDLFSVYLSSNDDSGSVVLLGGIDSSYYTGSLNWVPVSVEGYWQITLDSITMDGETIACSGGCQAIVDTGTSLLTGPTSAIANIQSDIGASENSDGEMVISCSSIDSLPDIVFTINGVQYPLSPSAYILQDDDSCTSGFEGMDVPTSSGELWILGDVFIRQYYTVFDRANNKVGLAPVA

O=C1CC2CCN(CC2)C(=O)[C@H](Cc2ccccc2)NC(=O)[C@@H](NC(=O)c2ccc(Cl)s2)CSCc2cccc(n2)CSCCN1 [compound 15]
Rat alpha thrombin inhibition, slope normalized to DMSO (rat α-thrombin; [4]): 1.8 and 3.0 and 9.6
Rat alpha thrombin inhibition, slope normalized to DMSO (rat α-thrombin; peptide 1.67E+01 uM): 7.1 and 6.4 and 13.3
Rat alpha thrombin inhibition, slope normalized to DMSO (rat α-thrombin; peptide 2.08E+00 uM): 34.4 and 33.4 and 32.9
Rat alpha thrombin inhibition, slope normalized to DMSO (rat α-thrombin; peptide 3.33E+01 uM): 4.1 (2×) and 10.8
Rat alpha thrombin inhibition, slope normalized to DMSO (rat α-thrombin; peptide 4.17E+00 uM): 21.9 and 19.6 and 23.7
Rat alpha thrombin inhibition, slope normalized to DMSO (rat α-thrombin; peptide 6.67E+01 uM): 2.7 and 2.8 and 9.5
Rat alpha thrombin inhibition, slope normalized to DMSO (rat α-thrombin; peptide 8.33E+00 uM): 12.5 and 11.7 and 18.6
microsomal CLint [1, 5]: 87.8 µL/min/mg
microsomal CLint [1, 6]: 76.3 µL/min/mg
microsomal CLint [1, 7]: 81.9 µL/min/mg
half-life [1, 8]: 15.8 min
half-life [1, 9]: 18.2 min
half-life [1, 10]: 16.9 min
half-life [1, 11]: 17 ± 1 min
microsomal CLint [1, 12]: 82 ± 5 µL/min/mg
Human alpha thrombin inhibition, slope normalized to DMSO (human α-thrombin; peptide 1.02E-03 uM): 100.6 and 98.3 and 99.0
Human alpha thrombin inhibition, slope normalized to DMSO (human α-thrombin; peptide 1.04E+00 uM): 68.1 and 68.7 and 68.9
Human alpha thrombin inhibition, slope normalized to DMSO (human α-thrombin; peptide 1.27E-04 uM): 101.1 and 97.6 and 104.9
Human alpha thrombin inhibition, slope normalized to DMSO (human α-thrombin; peptide 1.30E-01 uM): 90.7 and 100.7 and 97.5
Human alpha thrombin inhibition, slope normalized to DMSO (human α-thrombin; [4]): 4.8 and 5.5 and 1.6
Human alpha thrombin inhibition, slope normalized to DMSO (human α-thrombin; peptide 1.63E-02 uM): 110.6 and 96.8 and 100.1
Human alpha thrombin inhibition, slope normalized to DMSO (human α-thrombin; peptide 1.67E+01 uM): 12.1 and 12.4 and 14.6
Human alpha thrombin inhibition, slope normalized to DMSO (human α-thrombin; peptide 2.03E-03 uM): 101.2 and 99.3 and 100.0
Human alpha thrombin inhibition, slope normalized to DMSO (human α-thrombin; peptide 2.08E+00 uM): 65.0 and 52.9 and 51.5
Human alpha thrombin inhibition, slope normalized to DMSO (human α-thrombin; peptide 2.54E-04 uM): 99.3 and 97.7 and 101.2
Human alpha thrombin inhibition, slope normalized to DMSO (human α-thrombin; peptide 2.60E-01 uM): 95.0 and 89.4 and 94.7
Human alpha thrombin inhibition, slope normalized to DMSO (human α-thrombin; peptide 3.18E-05 uM): 97.8 and 94.7 and 100.8
Human alpha thrombin inhibition, slope normalized to DMSO (human α-thrombin; peptide 3.26E-02 uM): 94.1 and 101.2 and 106.3
Human alpha thrombin inhibition, slope normalized to DMSO (human α-thrombin; peptide 3.33E+01 uM): 8.2 and 10.1 and 12.2
Human alpha thrombin inhibition, slope normalized to DMSO (human α-thrombin; peptide 4.07E-03 uM): 102.2 and 130.5 and 101.9
Human alpha thrombin inhibition, slope normalized to DMSO (human α-thrombin; peptide 4.17E+00 uM): 34.4 and 33.3 and 35.3
Human alpha thrombin inhibition, slope normalized to DMSO (human α-thrombin; peptide 5.09E-04 uM): 99.7 and 107.7 and 101.3
Human alpha thrombin inhibition, slope normalized to DMSO (human α-thrombin; peptide 5.21E-01 uM): 82.1 and 87.9 and 83.3
Human alpha thrombin inhibition, slope normalized to DMSO (human α-thrombin; peptide 6.36E-05 uM): 100.1 and 97.7 and 104.2
Human alpha thrombin inhibition, slope normalized to DMSO (human α-thrombin; peptide 6.51E-02 uM): 100.7 and 90.2 and 100.6
Human alpha thrombin inhibition, slope normalized to DMSO (human α-thrombin; peptide 6.67E+01 uM): 5.7 and 5.6 and 9.1
Human alpha thrombin inhibition, slope normalized to DMSO (human α-thrombin; peptide 8.14E-03 uM): 98.8 and 99.9 and 103.6
Human alpha thrombin inhibition, slope normalized to DMSO (human α-thrombin; peptide 8.33E+00 uM): 23.8 and 18.1 and 21.3
remaining at 8 h [2]: 88 ± 18%
SIF stability, Residual peptide Average (porcine pancreatin): 87.61
SGF stability, Residual peptide Average (porcine pepsin): 98.62
SGF stability, Residual peptide (porcine pepsin): 100.84 and 98.47 and 96.53
remaining at 8 h (porcine pepsin): 99 ± 2%
PAMPA permeability: % permeability [3]: 20 ± 10%
Papp at 50 μM [3]: 1.35 ×10⁻⁶ cm/s
Permeability% Average [3]: 20.3%
Permeability% R1 [3]: 29.62%
Permeability% R3 [3]: 22.19%

O=C(N[C@H]1CSCCS(=O)(=O)CCSCCNC(=O)C2(CC2)CNC(=O)[C@H](Cc2ccccc2)NC1=O)c1ccc(Cl)s1 [compound 16]
Rat alpha thrombin inhibition, slope normalized to DMSO (rat α-thrombin; [4]): 3.3 and 2.8 and 2.1
Rat alpha thrombin inhibition, slope normalized to DMSO (rat α-thrombin; peptide 1.67E+01 uM): 6.6 and 5.4 and 5.1
Rat alpha thrombin inhibition, slope normalized to DMSO (rat α-thrombin; peptide 2.08E+00 uM): 33.9 and 33.4 and 32.2
Rat alpha thrombin inhibition, slope normalized to DMSO (rat α-thrombin; peptide 3.33E+01 uM): 4.4 and 3.4 and 3.5
Rat alpha thrombin inhibition, slope normalized to DMSO (rat α-thrombin; peptide 4.17E+00 uM): 19.8 and 18.5 and 18.4
Rat alpha thrombin inhibition, slope normalized to DMSO (rat α-thrombin; peptide 6.67E+01 uM): 3.3 and 1.7 and 2.4
Rat alpha thrombin inhibition, slope normalized to DMSO (rat α-thrombin; peptide 8.33E+00 uM): 11.8 and 11.2 and 10.2
microsomal CLint [1, 5]: 61 µL/min/mg
microsomal CLint [1, 6]: 51.4 µL/min/mg
microsomal CLint [1, 7]: 62.2 µL/min/mg
half-life [1, 8]: 22.7 min
half-life [1, 9]: 26.9 min
half-life [1, 10]: 22.3 min
half-life [1, 11]: 24 ± 2 min
microsomal CLint [1, 12]: 58 ± 5 µL/min/mg
Human alpha thrombin inhibition, slope normalized to DMSO (human α-thrombin; peptide 1.02E-03 uM): 95.7 (2×) and 101.7
Human alpha thrombin inhibition, slope normalized to DMSO (human α-thrombin; peptide 1.04E+00 uM): 62.0 and 61.5 and 59.7
Human alpha thrombin inhibition, slope normalized to DMSO (human α-thrombin; peptide 1.27E-04 uM): 99.4 and 101.3 and 98.3
Human alpha thrombin inhibition, slope normalized to DMSO (human α-thrombin; peptide 1.30E-01 uM): 89.0 and 89.6 and 91.9
Human alpha thrombin inhibition, slope normalized to DMSO (human α-thrombin; [4]): 4.8 and 2.4 and 6.7
Human alpha thrombin inhibition, slope normalized to DMSO (human α-thrombin; peptide 1.63E-02 uM): 103.7 and 97.9 and 94.4
Human alpha thrombin inhibition, slope normalized to DMSO (human α-thrombin; peptide 1.67E+01 uM): -1.3 and 11.2 and 10.7
Human alpha thrombin inhibition, slope normalized to DMSO (human α-thrombin; peptide 2.03E-03 uM): 102.2 and 96.9 and 97.7
Human alpha thrombin inhibition, slope normalized to DMSO (human α-thrombin; peptide 2.08E+00 uM): 40.1 and 46.6 and 47.4
Human alpha thrombin inhibition, slope normalized to DMSO (human α-thrombin; peptide 2.54E-04 uM): 100.3 and 97.2 and 96.3
Human alpha thrombin inhibition, slope normalized to DMSO (human α-thrombin; peptide 2.60E-01 uM): 83.3 and 73.2 and 85.9
Human alpha thrombin inhibition, slope normalized to DMSO (human α-thrombin; peptide 3.18E-05 uM): 101.8 and 98.5 and 103.1
Human alpha thrombin inhibition, slope normalized to DMSO (human α-thrombin; peptide 3.26E-02 uM): 95.9 and 94.2 and 94.5
Human alpha thrombin inhibition, slope normalized to DMSO (human α-thrombin; peptide 3.33E+01 uM): 6.5 (2×) and 8.7
Human alpha thrombin inhibition, slope normalized to DMSO (human α-thrombin; peptide 4.07E-03 uM): 101.7 and 97.8 and 102.2
Human alpha thrombin inhibition, slope normalized to DMSO (human α-thrombin; peptide 4.17E+00 uM): 27.0 and 27.6 and 28.2
Human alpha thrombin inhibition, slope normalized to DMSO (human α-thrombin; peptide 5.09E-04 uM): 97.5 and 98.8 and 97.2
Human alpha thrombin inhibition, slope normalized to DMSO (human α-thrombin; peptide 5.21E-01 uM): 78.3 and 65.6 and 76.6
Human alpha thrombin inhibition, slope normalized to DMSO (human α-thrombin; peptide 6.36E-05 uM): 105.9 and 99.3 and 96.8
Human alpha thrombin inhibition, slope normalized to DMSO (human α-thrombin; peptide 6.51E-02 uM): 92.3 and 91.0 and 94.1
Human alpha thrombin inhibition, slope normalized to DMSO (human α-thrombin; peptide 6.67E+01 uM): 5.1 and 4.9 and 7.0
Human alpha thrombin inhibition, slope normalized to DMSO (human α-thrombin; peptide 8.14E-03 uM): 97.0 (2×) and 91.0
Human alpha thrombin inhibition, slope normalized to DMSO (human α-thrombin; peptide 8.33E+00 uM): 19.7 and 13.2 and 20.2
remaining at 8 h [2]: 6.3 ± 1.9%
SIF stability, Residual peptide Average (porcine pancreatin): 6.32
SGF stability, Residual peptide Average (porcine pepsin): 98.52
SGF stability, Residual peptide (porcine pepsin): 104.99 and 99.11 and 91.47
remaining at 8 h (porcine pepsin): 99 ± 7%
PAMPA permeability: % permeability [3]: 8.6 ± 3.0%
Papp at 50 μM [3]: 0.575 ×10⁻⁶ cm/s
Permeability% Average [3]: 8.6%
Permeability% R1 [3]: 11.91%
Permeability% R3 [3]: 7.66%
